From patent publication US12295396B2, “Antagonists of T2R54 and compositions and uses thereof” (Firmenich Incorporated, priority 2018, dated 2025)
Where two headings read alike, the source gives them in different places.

Target: T1, hT2R54 (Homo sapiens, UniProt P59534)
T1 construct: expressed in transfected cells; it overexpresses a promiscuous G protein
T1 sequence (P59534 1-338): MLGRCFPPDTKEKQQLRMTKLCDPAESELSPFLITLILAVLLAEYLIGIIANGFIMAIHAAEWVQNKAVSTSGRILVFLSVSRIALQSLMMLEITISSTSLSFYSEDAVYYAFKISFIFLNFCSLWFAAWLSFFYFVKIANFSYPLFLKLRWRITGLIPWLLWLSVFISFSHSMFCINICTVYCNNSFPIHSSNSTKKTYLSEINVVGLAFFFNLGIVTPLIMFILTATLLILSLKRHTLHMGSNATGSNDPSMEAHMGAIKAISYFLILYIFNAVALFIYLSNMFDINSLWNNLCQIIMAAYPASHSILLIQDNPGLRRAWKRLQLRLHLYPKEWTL
Experiment: Cell-based assay for measuring hT2R54 inhibition (FLIPR calcium, Fluo4AM, acetaminophen as bitter agonist)
Settings: read-out: hT2R54 IC50
Protocol: Cells stably expressing hT2R54 and a promiscuous G protein were seeded in 384 well plates 24 hours prior to the experiment. Cells were loaded with the calcium indicator Fluo4AM, washed and loaded in a FLIPR instrument with a compound plate containing increasing doses of acetaminophen in quadruplicates and prepared at 2× of final concentration. Baseline was recorded for 10 seconds, then 25 μl of […] was added onto 25 μl of cells and resulting changes in fluorescence were monitored over an additional 3 minutes. The host cell line overexpressing the G protein but not hT2R54 was treated as described above.
The ability of a test compound that blocks bitter taste elicited through hT2R54 was measured in this assay, as follows. Cells stably expressing hT2R54 and a promiscuous G protein were seeded in 384 well plates 24 hours prior to the experiment. Cells were loaded with the calcium indicator Fluo4AM, washed and loaded in a FLIPR instrument with a compound plate containing increasing doses of acetaminophen in buffer and increasing doses of acetaminophen with depicted fixed concentrations of Cmpd 109 (Table 4). Base line was recorded for 10 seconds, then 25 μl of compound and compound mixtures were added onto 25 μl of cells and resulting changes in fluorescence were monitored over an additional 3 minutes. The concentration of test compound that blocks half of the response when the bitter compound alone is present is presented as the EC50 or IC50 value.
In the examples above, the EC50 of compounds for blocking bitter taste elicited through T2R54 was measured in the same manner.

[1] = Table 2, cells stably expressing hT2R54 and a promiscuous G protein
[2] = Table 7, cells stably expressing hT2R54 and a promiscuous G protein
[3] = Table 4, cells stably expressing hT2R54 and a promiscuous G protein

| IC50 [1] [nM] | SMILES | other results |
| --- | --- | --- |
| – | COCc1cccc(C(=O)N2CCC(CC(=O)Nc3cc4c(cc3C(C)=O)OCO4)CC2)c1 [compound 245] | IC50 (Table 8): 44 nM |
| 80 | CC(=O)c1cc2c(cc1NC(=O)CN1CCN(C(=O)c3ccc(O)cc3)CC1)OCO2 [compound 43] | – |
| – | CC(=O)c1cc2c(cc1NC(=O)CN(C)C1CCN(C(=O)c3ccco3)CC1)OCO2 [compound 183, N-(6-Acetylbenzo[d][1,3]dioxol-5-yl)-2-((1-(furan-2-carbonyl)piperidin-4-yl)(methyl)amino)acetamide] | IC50 [2]: 61 nM |
| 34 | CC(=O)c1cc2c(cc1NC(=O)CN1CCN(C(=O)NC(C)C)CC1)OCO2 [compound 4, 4-(2-((6-Acetylbenzo[d][1,3]dioxol-5-yl)amino)-2-oxoethyl)-N-isopropylpiperazine-1-carboxamide] | – |
| 1900 | COc1cc2c(cc1NC(=O)CN1CCN(C(=O)C3CCCO3)CC1)CCC2 (stereo not drawn) [compound 354] | – |
| – | CC(=O)c1cc2c(cc1NC(=O)C(C)N1CCOCC1)OCO2 (stereo not drawn) [compound 110, N-(6-Acetylbenzo[d][1,3]dioxol-5-yl)-2-morpholinopropanamide] | IC50 [3]: 359 nM |
| – | CC(=O)c1cc2c(cc1NC(=O)CN1CCOCC1)OCO2 [compound 109, N-(6-acetylbenzo[d][1,3]dioxol-5-yl)-2-morpholinoacetamide] | IC50 [3]: 588 nM |
| – | CC(=O)c1cc2c(cc1NC(=O)CC1CCN(C(=O)[C@H]3CCCO3)CC1)OCCO2 [compound 495] | IC50 (Table 8): 200 nM |
| – | COc1cccc(CC(=O)Nc2cc3c(cc2C(C)=O)OCO3)c1 [compound 281] | IC50 (Table 9): 1810 nM |
| – | CC(=O)c1cc2c(cc1NC(=O)CC1CCN(C(=O)c3ccco3)CC1)OCO2 [compound 197, N-(6-Acetylbenzo[d][1,3]dioxol-5-yl)-2-(1-(furan-2-carbonyl)piperidin-4-yl)acetamide] | IC50 (Table 8): 6 nM |
| – | CC(=O)c1cc2c(cc1NC(=O)CN1CCN(Cc3ccccc3F)CC1)OCO2 [compound 102] | IC50 (Table 3, cells stably expressing hT2R54 and a promiscuous G protein): 500 nM |
| 65 | COCc1ccc(C(=O)N2CCN(CC(=O)Nc3cc4c(cc3C(C)=O)OCO4)CC2)o1 [compound 288] | – |
| 200 | CC(=O)c1cc2c(cc1NC(=O)C(C)N1CCN(C(=O)[C@H]3CCCO3)CC1)OCO2 (stereo partly drawn) [compound 317] | – |
| 500 | COc1cc2c(cc1NC(=O)CN1CCN(C(=O)CC3CCCCO3)CC1)OCO2 (stereo not drawn) [compound 409] | – |
| – | COc1cc2c(cc1NC(=O)C(C)N1CCOCC1)OCO2 (stereo not drawn) [compound 441] | IC50 [3]: 1000 nM |
| 27 | COc1ccc(F)cc1C(=O)N1CCN(CC(=O)Nc2cc3c(cc2C(C)=O)OCO3)CC1 [compound 2, N-(6-Acetylbenzo[d][1,3]dioxol-5-yl)-2-(4-(5-fluoro-2-methoxybenzoyl)piperazin-1-yl)acetamide] | – |
| 80 | CC(=O)c1cc2c(cc1NC(=O)CN1CCN(C(=O)CC(C)(C)C)CC1)OCO2 [compound 14] | – |
| – | CCCOC(=O)N1CCC(CC(=O)Nc2cc3c(cc2C(C)=O)OCO3)C1 (stereo not drawn) [compound 269] | IC50 (Table 8): 103 nM |
| – | CC(=O)c1cc2c(cc1NC(=O)CC1CCCN(C(=O)CC(C)(C)C)C1)OCO2 (stereo not drawn) [compound 207] | IC50 (Table 8): 360 nM |
| 80 | CC(=O)c1cc2c(cc1NC(=O)C(C)N1CCN(C(=O)[C@@H]3CCCO3)CC1)OCO2 (stereo partly drawn) [compound 316] | – |
| – | CCOC(=O)N1CCCC(N(C)CC(=O)Nc2cc3c(cc2C(C)=O)OCO3)C1 (stereo not drawn) [compound 188] | IC50 [2]: 90 nM |
| – | CC(=O)c1cc2c(cc1NC(=O)CC1CCN(C(=O)c3ncn[nH]3)CC1)OCO2 [compound 460] | IC50 (Table 8): 300 nM |
| 50 | CC(=O)c1cc2c(cc1NC(=O)CN1CCN(C(=O)c3cnn[nH]3)CC1)OCCO2 [compound 329] | – |

| IC50 [1] [nM] | SMILES | other results |
| --- | --- | --- |
| – | CC(=O)c1cc2c(cc1NC(=O)CC1CCOC1)OCO2 (stereo not drawn) [compound 272] | IC50 (Table 9): 1390 nM |
| 40 | CC(=O)c1cc2c(cc1NC(=O)CN1CCN(C(=O)c3c(C)noc3C)CC1)OCO2 [compound 69] | – |
| – | CC(=O)c1cc2c(cc1NC(=O)CN(C)C1CCCN(C(=O)c3cccnc3)C1)OCO2 (stereo not drawn) [compound 187] | IC50 [2]: 100 nM |
| – | COc1cccc(CC(=O)N2CCC(CC(=O)Nc3cc4c(cc3C(C)=O)OCO4)CC2)c1 [compound 256] | IC50 (Table 8): 380 nM |
| – | CCOC(=O)C1COCCN1CC(=O)Nc1cc2c(cc1OC)OCO2 (stereo not drawn) [compound 445] | IC50 [3]: 526 nM |
| – | CC(=O)c1cc2c(cc1NC(=O)CC1CCCN(C(=O)c3ccc(O)c(O)c3)C1)OCO2 (stereo not drawn) [compound 456] | IC50 (Table 8): 1300 nM |
| – | CC(=O)c1cc2c(cc1NC(=O)CC1CCN(C(C)=O)CC1)OCO2 [compound 232] | IC50 (Table 8): > 1000 nM |
| – | CC(=O)c1cc2c(cc1NC(=O)CC1CCN(C(=O)C3CCCCC3)CC1)OCO2 [compound 239] | IC50 (Table 8): > 1000 nM |
| – | CCOC(=O)CCN(CC)CC(=O)Nc1cc2c(cc1C(C)=O)OCO2 [compound 136] | IC50 [3]: 179 nM |
| – | CC(=O)c1cc2c(cc1NC(=O)CC1CCCN(C(C)=O)C1)OCO2 (stereo not drawn) [compound 202] | IC50 (Table 8): 35 nM |
| – | CCOC(=O)N1CCCC(CC(=O)Nc2cc3c(cc2C(C)=O)OCO3)C1 (stereo not drawn) [compound 213] | IC50 (Table 8): 50 nM |
| 200 | CC(=O)c1cc2c(cc1NC(=O)CN1CCN(C(=O)c3c[nH]c(C)n3)CC1)OCO2 [compound 309] | – |
| 50 | CC(=O)c1cc2c(cc1NC(=O)CN1CCN(C(=O)c3cccc(O)c3)CC1)OCO2 [compound 38] | – |
| 156 | COCc1cccc(C(=O)N2CCN(CC(=O)Nc3cc4c(cc3OC)OCO4)CC2)c1 [compound 356] | – |
| – | CC(=O)c1cc2c(cc1NC(=O)CC1CCN(C(=O)CC3CCOC3)CC1)OCO2 (stereo not drawn) [compound 477] | IC50 (Table 8): 400 nM |
| – | CCOC(=O)C1CCN(CC(=O)Nc2cc3c(cc2C(C)=O)OCCO3)CC1 [compound 153] | IC50 [3]: 24 nM |
| 80 | CC(=O)c1cc2c(cc1NC(=O)CN1CCN(C(=O)c3ncn[nH]3)CC1)OCO2 [compound 304] | – |
| 60 | CC(=O)c1cc2c(cc1NC(=O)CN1CCN(C(=O)[C@H]3CCC(=O)O3)CC1)OCO2 [compound 313] | – |
| – | CCCC(=O)N1CCC(CC(=O)Nc2cc3c(cc2C(C)=O)OCO3)C1 (stereo not drawn) [compound 260] | IC50 (Table 8): 844 nM |
| 1100 | COc1cc2c(cc1NC(=O)CN1CCN(C(=O)[C@H]3CCC(=O)O3)CC1)OCO2 [compound 402] | – |
| 148 | COCc1ccc(C(=O)N2CCN(CC(=O)Nc3cc4c(cc3OC)OCO4)CC2)cc1 [compound 358] | – |
| – | CC(=O)c1cc2c(cc1NC(=O)C[C@@H]1CCCN(C(=O)c3ccco3)C1)OCO2 [compound 220] | IC50 (Table 8): ~10 nM |

| SMILES | IC50 [1] [nM] | other results |
| --- | --- | --- |
| COc1cccc(CC(=O)N2CCN(CC(=O)Nc3cc4c(cc3OC)OCO4)CC2)c1 [compound 374] | 300 | – |
| CC(=O)c1cc2c(cc1NC(=O)CN1CCN(C(=O)Cc3ccccc3F)CC1)OCO2 [compound 55] | 70 | – |
| CC(=O)c1cc2c(cc1NC(=O)CN1CCN(C(=O)Oc3ccccc3)CC1)OCO2 [compound 31] | 262 | – |
| COc1cc2c(cc1NC(=O)CN1CCN(C(=O)Cc3cccc(F)c3)CC1)OCO2 [compound 377] | 200 | – |
| CC(=O)c1cc2c(cc1NC(=O)CN1CCN(C(=O)Cc3ccco3)CC1)OCCO2 [compound 334] | 50 | – |
| CC(=O)c1cc2c(cc1NC(=O)CN1CCN(C(=O)Cc3ccccc3)CC1)OCO2 [compound 52] | 51 | – |
| COc1cc2c(cc1NC(=O)CN1CCN(C(=O)Cc3ccccc3O)CC1)OCO2 [compound 100] | 430 | – |
| COc1cc2c(cc1NC(=O)CN1CCN(C(=O)Cc3cccc(O)c3)CC1)OCO2 [compound 372] | 400 | – |
| COc1ccccc1CC(=O)N1CCN(CC(=O)Nc2cc3c(cc2C(C)=O)OCO3)CC1 [compound 54] | 24 | – |
